Results published in patent US20220017468A1, “ISOQUINOLINE COMPOUNDS AND THEIR USE IN TREATING AhR IMBALANCE” (Dermavant Sciences GmbH, priority 2020, published 2022).
Several values for one entry are separate records, joined by “and”; a condition that tells them apart may be missing. Identical values can stand only once. Like-named read-outs stand apart in the source and are kept apart here.

How the values were obtained:
CB2 = molecular target: T1, CB2 (Homo sapiens, UniProt P34972); experiment: fluorescence-based agonist assay using genetically modified yeast; format: cell-based; conditions: read-out: CB2 pEC50 (converted)
T1 construct: expressed in transfected cells

[1] = test system: human peripheral blood CD4+ T-cells; experiment: T cell viability; format: cell-based; conditions: 120 h, Th17 polarizing conditions, 5 days
From the text: Points represent percent maximum expression of protein compared to Th17 from six combined donors; 3 biological replicates per treatment. Error bars represent standard error of mean. […] Data are mean±standard error from 3 to 9 experimental data points. […] Error bars represent mean ±standard error of 10-15 biological replicates.

[2] = test system: AhR pathway (CYP1A1 mRNA); experiment: sRICA ex vivo human skin explant, CYP1A1 induction; format: cell-based; conditions: 1 μM or 10 μM in the baso-lateral media
From the text: (§1) A liquid-air interface skin explant culture with the in situ activation of immunocompetent cells, termed sRICA for skin-Resident Immune Cell Activation model was previously reported (Smith et al., (2016) PLoS One, 11(2)). In this assay, specific cytokine profiles of inflammatory skin diseases can be induced, including the Th17-type cytokines, IL17A, IL17F and IL22. Reduction of biomarkers in this assay indicates biological activity of the test compound.
(§2) Ex vivo human skin obtained from abdominoplasty surgery was processed to remove fat and dermatomed the tissue to ˜750 microns. Dermatomed skin was then cleaned in two serial rinses of 5-10 minutes each in room temperature PBS containing an antibiotic/antimycotic solution.
(§3) Skin was treated as asceptic from this point on; all further manipulations were performed in a class II biosafety cabinet. […]
(§4) The harvested skin tissue were stored in RNAlater until use. […] RNA was diluted to a concentration of 23.6 ng/ul (total of 100 ng RNA), and was used as template in a 10 uL PCR volume using Applied Biosciences RNA-to-CT 1 Step kit (AB Catalog # 4392938) and the specific TaqMan probes foreach gene to be quantified. […]
(§5) RNA levels of gene of interest's Relative Expression was calculated using the Delta Delta CT formula.
(§6) RNA was isolated from the tissue harvested at 24 hr and 48 hr post stimulation and gene expression was assessed by quantitative PCR. […]

IL17A mRNA = experiment: sRICA ex vivo human skin explant, IL17A expression; format: cell-based; conditions: 10 μM, Th17 polarizing conditions
From the text: as §1, §2, §3, §4, §5, §6

[3] = plasma protein binding by Rapid Equilibrium Dialysis, human; format: in vitro ADME; conditions: human, plasma
From the text: (§7) The blood-to-plasma ratios were similar across species (1.22-1.36, Table 9).

Human Plasma Proteins = experiment: as above; format: in vitro ADME
From the text: as §7

[4] = blood-to-plasma ratio and blood cell association, rat; format: in vitro ADME
[5] = blood-to-plasma ratio and blood cell association, minipig; format: in vitro ADME
[6] = metabolic stability in liver microsomes, mouse; format: in vitro ADME
[7] = metabolic stability in liver microsomes, rabbit; format: in vitro ADME
[8] = metabolic stability in liver microsomes, human; format: in vitro ADME
[9] = metabolic stability in hepatocytes, dog; format: in vitro ADME
[10] = pharmacokinetics after a single intravenous dose, rat; format: in vivo; conditions: plasma, 1 mg/kg intravenous
From the text: Bioavailability was 46.5% and 41.0% for 30% Captisol and 30% Cavitron, respectively. 30% Captisol formulation was selected for the 7-day subcutaneous toxicity study in rat.

[11] = read-out: Blood-to-plasma Ratio Mean (% CV)
[12] = read-out: Blood-to-plasma Ratio Replicate

T1 sequence (P34972 whole entry, species assumed): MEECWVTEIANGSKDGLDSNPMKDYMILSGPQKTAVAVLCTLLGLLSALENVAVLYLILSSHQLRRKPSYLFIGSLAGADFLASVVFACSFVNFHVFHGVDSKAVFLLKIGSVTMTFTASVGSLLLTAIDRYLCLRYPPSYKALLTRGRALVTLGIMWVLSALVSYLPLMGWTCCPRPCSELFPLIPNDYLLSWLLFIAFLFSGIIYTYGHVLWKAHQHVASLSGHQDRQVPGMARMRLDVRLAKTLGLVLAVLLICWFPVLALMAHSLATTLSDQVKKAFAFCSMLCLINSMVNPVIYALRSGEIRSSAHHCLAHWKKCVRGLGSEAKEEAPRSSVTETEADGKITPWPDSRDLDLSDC

CC(C)c1c(O)cc(-c2cc3ccccc3cn2)cc1O
EC50 (CB2): 0.2 µM | IC50 [1]: 5.9 µM | AhR pathway activation as measured by cyp1a1 gene induction [2]: confirmed | inhibition of IL17A message expression (IL17A mRNA): ~45% | fraction unbound at 2 μM ([3]; read-out: % Unbound Mean (% CV)): 0.0108 | fraction unbound at 2 μM ([3]; read-out: % Unbound Replicate): 0.0106 | fraction unbound at 2 μM ([3]; read-out: Mean % Bound (converted)): 0.011 | recovery at 2 μM (Human Plasma Proteins): 102% | % Unbound Replicate (Human Plasma Proteins; 2 μM): 1.05% and 1.13% | Mean % Stability at 4 hrs (Human Plasma Proteins; 2 μM): 101% | % Blood Cell Association Mean (% CV) ([4]; 1 μM): 60.2 (4.37) % | % Blood Cell Association Replicate ([4]; 1 μM): 58.9% and 58.3% and 63.1% | Blood-to-plasma Ratio Replicate ([4]; 1 μM): 1.29 and 1.46 | Mean % Blood Stability ([4]; 1 μM): 104% | blood plasma ratio at 1 μM [4, 11]: 1.36 | blood plasma ratio at 1 μM [4, 12]: 1.31 | % Blood Cell Association Mean (% CV) ([5]; 1 μM): 55.6 (2.02) % | % Blood Cell Association Replicate ([5]; 1 μM): 55.3% and 56.8% and 54.5% | Blood-to-plasma Ratio Replicate ([5]; 1 μM): 1.25 and 1.19 | Mean % Blood Stability ([5]; 1 μM): 105% | blood plasma ratio at 1 μM [5, 11]: 1.22 | blood plasma ratio at 1 μM [5, 12]: 1.21 | CLint, mic ([6]; mouse liver microsomes, 0.5 μM): 23.4 mL/min/g liver | CLint scaled at 0.5 μM ([6]; mouse liver microsomes, 0.5 μM, read-out: Scaled CLint, mic): 1190 mL/min/kg | half-life at 0.5 μM ([6]; mouse, microsomes): 2.84 min | CLint, mic ([7]; rabbit liver microsomes, 0.5 μM): 11.9 mL/min/g liver | CLint scaled at 0.5 μM ([7]; rabbit liver microsomes, 0.5 μM, read-out: Scaled CLint, mic): 367 mL/min/kg | half-life at 0.5 μM ([7]; rabbit, microsomes): 6.1 min | CLint, mic ([8]; human liver microsomes, 0.5 μM): 1.35 mL/min/g liver | CLint scaled at 0.5 μM ([8]; human liver microsomes, 0.5 μM, read-out: Scaled CLint, mic): 33.1 mL/min/kg | half-life at 0.5 μM ([8]; human, microsomes): 40.9 min | half-life at 0.5 μM [9]: 31.9 min | CLint, hep ([9]; 0.5 μM): 7.39 mL/min/g liver | CLint scaled at 0.5 μM ([9]; read-out: Scaled CLint, hep): 240 mL/min/kg | AUC(0-inf) ([10]; mean n = 3): 95.7 ng·h/mL | half-life ([10]; mean n = 3): 41.4 min | clearance ([10]; mean n = 3, read-out: CLp): 175 mL/min/kg | Vd ([10]; mean n = 3, read-out: Vss): 6 L/kg
